Assay results published in patent US20250195532A1, “NOVEL PHOSPHOINOSITIDE 3-KINASE (PI3K) INHIBITOR, COMPOSITIONS COMPRISING THE SAME, METHODS OF MAKING, AND METHODS OF TREATING A DISEASE” (The Curators of the University of Missouri, priority 2022, published 2025).
Several values for one entry are separate records, joined by “and”; a condition that tells them apart may be missing. Equal entries are not always repeated. Where two headings read alike, the source gives them in different places.

What was measured:
[1] = tested on: PC-3 cell line cells; assay: Cellular uptake / cell killing by luminescence, PC-3; format: cell-based; details: Homo sapiens, PC-3 cells, FIG. 5C
Procedure: (§1) Different cell lines were seeded, incubated, and washed prior to administering a dose solution of CK-TGX-MN. Cell lines tested included LNCaP cell line, which is a cell line with epithelial-like morphology that was isolated from a metastatic lymph node a lesion of human prostate cancer; C4-2, which is a prostate cancer cell line derived from LNCaP cells that grows in the absence of androgens, yet responds to manipulation of androgen levels; GL261 cell line, which are murine glioma cells isolated from […] brain; PC-3 cell line, which is a prostate cancer cell line that is typically used as a model of androgen-independent prostate cancer; TRAMP cell line, which are epithelial cells isolated from transgenic adenocarcinoma of the mouse prostate; and Hela cell line, which is an immortalized human cell line isolated from cervical cancer cells.
(§2) The cellular uptake was measured as a function of luminescence and concentration of CK-TGX-MN, by determining the IC50 value. A decrease in luminescence observed translates to the efficacy of CK-TGX-MN in killing the cells of the respective cell culture.
Moving on to FIG. 5C, the cellular uptake of CK-TGX-MN and TGX-221 in PC-3 cell line cells was measured.

[2] = molecular target: PI3Kβ isoform (Homo sapiens, UniProt P42338); assay: Inhibition of PI3Kβ isoform, dose response curves (FIG. 4B); format: biochemical
[3] = tested on: TRAMP cell line cells; assay: Cellular uptake / cell killing by luminescence, TRAMP; format: cell-based; details: Mus musculus, FIG. 5D
Procedure: as §1, §2
Moving on to FIG. 5D, the cellular uptake of CK-TGX-MN and TGX-221 in TRAMP cell line cells was measured.

[4] = tested on: GL261 cell line cells; assay: Cellular uptake / cell killing by luminescence, GL261; format: cell-based, murine; details: Mus musculus, FIG. 5B
Procedure: as §1, §2

[5] = tested on: C4-2 cell line cells; assay: Cellular uptake / cell killing by luminescence, C4-2; format: cell-based; details: Homo sapiens, C4-2 cells, FIG. 5A
Procedure: as §1, §2

[6] = tested on: Hela cell line cells; assay: Cellular uptake / cell killing by luminescence, Hela; format: cell-based; details: Homo sapiens, FIG. 5E
Procedure: as §1, §2
Moving on to FIG. 5E, the cellular uptake of CK-TGX-MN and TGX-221 in Hela cell line cells was measured.

[7] = tested on: LNCaP cell line cells; assay: Cellular uptake / cell killing by luminescence, LNCaP; format: cell-based; details: Homo sapiens, FIG. 5F
Procedure: as §1, §2
Finally, moving on to FIG. 5F, the cellular uptake of CK-TGX-MN and TGX-221 in LNCaP cell line cells was measured.

[8] = Pharmacokinetic (PK) study, IV and oral route, in mice; details: mouse, in vivo, oral 2 mg/ml formulation vs IV 1 mg/ml formulation
Procedure: Bioavailability in Pharmacology is a measure of an amount of a drug substance that enters the circulation and becomes completely available for its intended purpose when introduced into the body. There are several delivery routes for drugs including intra-venous route (IV), oral route, subcutaneous route, rectal route, intramuscular route, vaginal route, inhaled route, and the like.
Bioavailability of CK-TGX-MN was determined in relation to a liquid formulation of CK-TGX-MN 1 mg/ml in 5% DMSO, 10%, and 85% aqueous solution. A dose amount of aqueous CK-TGX-MN was prepared for delivery through the IV route in-vivo. Additionally, a liquid formulation of CK-TGX-MN 2 mg/ml in 5% DMSO, 10%, and 85% aqueous solution was prepared for delivery of a dose amount of CK-TGX-MN through the oral route in-vivo. The pharmacokinetic (PK) studies were performed in mice. As shown in graph 302 of FIG. 3B, the depicted example mice had similar clearance of IV delivered CK-TGX-MN over time.

[9] = physchem; format: physicochemical
[10] = background statement, cited from earlier work

Sequence of PI3Kβ isoform (P42338 whole entry, canonical isoform): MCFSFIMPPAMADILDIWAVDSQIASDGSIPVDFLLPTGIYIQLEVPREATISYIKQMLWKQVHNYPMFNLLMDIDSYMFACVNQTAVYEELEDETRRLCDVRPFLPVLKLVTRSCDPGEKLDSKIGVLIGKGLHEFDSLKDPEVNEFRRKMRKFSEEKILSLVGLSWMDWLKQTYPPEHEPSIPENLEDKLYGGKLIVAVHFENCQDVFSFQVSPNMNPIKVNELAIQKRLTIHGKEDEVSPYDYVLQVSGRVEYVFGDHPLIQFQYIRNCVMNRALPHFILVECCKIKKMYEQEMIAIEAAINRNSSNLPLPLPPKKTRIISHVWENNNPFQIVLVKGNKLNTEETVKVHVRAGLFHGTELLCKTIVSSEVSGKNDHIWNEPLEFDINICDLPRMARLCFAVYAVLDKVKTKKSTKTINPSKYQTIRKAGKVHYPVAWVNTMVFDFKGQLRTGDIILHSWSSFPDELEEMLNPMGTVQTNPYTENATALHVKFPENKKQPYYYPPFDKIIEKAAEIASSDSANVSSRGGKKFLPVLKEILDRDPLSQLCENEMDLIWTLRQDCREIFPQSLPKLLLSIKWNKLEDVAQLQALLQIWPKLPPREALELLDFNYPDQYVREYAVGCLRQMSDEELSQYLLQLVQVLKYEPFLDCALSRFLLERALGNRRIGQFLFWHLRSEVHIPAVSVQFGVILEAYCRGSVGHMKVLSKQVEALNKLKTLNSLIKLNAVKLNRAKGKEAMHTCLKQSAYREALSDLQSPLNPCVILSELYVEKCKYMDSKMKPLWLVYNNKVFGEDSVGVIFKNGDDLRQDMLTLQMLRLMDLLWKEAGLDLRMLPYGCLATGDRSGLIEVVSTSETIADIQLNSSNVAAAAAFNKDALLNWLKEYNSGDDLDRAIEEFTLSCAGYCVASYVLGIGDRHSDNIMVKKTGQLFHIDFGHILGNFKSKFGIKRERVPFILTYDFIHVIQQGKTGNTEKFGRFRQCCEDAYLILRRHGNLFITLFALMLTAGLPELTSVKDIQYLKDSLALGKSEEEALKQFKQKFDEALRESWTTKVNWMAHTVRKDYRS
Sequence of PI3Kβ isoform (P27986 whole entry partner, canonical isoform): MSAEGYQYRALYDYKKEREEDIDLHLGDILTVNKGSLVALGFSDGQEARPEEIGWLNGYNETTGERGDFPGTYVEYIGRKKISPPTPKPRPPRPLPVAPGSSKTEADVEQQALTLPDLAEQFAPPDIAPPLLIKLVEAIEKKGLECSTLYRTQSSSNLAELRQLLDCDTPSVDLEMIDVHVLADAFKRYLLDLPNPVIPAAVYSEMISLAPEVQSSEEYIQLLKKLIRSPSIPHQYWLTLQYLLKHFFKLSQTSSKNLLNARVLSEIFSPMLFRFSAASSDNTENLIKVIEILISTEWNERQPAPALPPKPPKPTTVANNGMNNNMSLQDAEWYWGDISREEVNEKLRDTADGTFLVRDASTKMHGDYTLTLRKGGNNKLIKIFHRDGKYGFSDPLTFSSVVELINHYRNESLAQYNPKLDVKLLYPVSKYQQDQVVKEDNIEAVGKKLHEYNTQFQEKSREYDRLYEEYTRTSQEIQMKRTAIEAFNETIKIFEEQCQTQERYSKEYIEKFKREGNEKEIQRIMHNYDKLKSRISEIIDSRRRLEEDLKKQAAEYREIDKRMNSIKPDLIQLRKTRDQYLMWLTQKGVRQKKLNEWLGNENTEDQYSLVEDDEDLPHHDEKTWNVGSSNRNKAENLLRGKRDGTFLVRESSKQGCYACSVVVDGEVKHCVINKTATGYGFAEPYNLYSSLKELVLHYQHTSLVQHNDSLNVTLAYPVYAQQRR

Row | SMILES | IC50 [1] [µM] | IC50 [2] [µM] | IC50 [3] [µM] | IC50 [4] [µM] | IC50 [5] [µM] | IC50 [6] [µM] | IC50 [7] [µM] | bioavailability [8] [%] | solubility [9] | solubility [10] [µg/mL] | Log D7.4 ([10]; pH 7.4)
1 | Cc1cc(C(C)N(CCN)c2ccccc2)c2nc(N3CCOCC3)cc(=O)n2c1 (stereo not drawn) [CK-TGX-MN, 9-(1-((2-aminoethyl)(phenyl)amino)ethyl)-7-methyl-2-morpholino-4H-pyrido[1,2-a]pyrimidin-4-one] | 24.4 | 0.00948 | 17.2 | 13.5 | 15.8 | 23.9 | 6.39 | ~6.4 | 4630 µg/mL and 11400 µM |  | 
2 | Cc1cc(C(C)Nc2ccccc2)c2nc(N3CCOCC3)cc(=O)n2c1 (stereo not drawn) [TGX-221, 7-methyl-2-(4-morpholinyl)-9-[1-(phenylamino)ethyl]-4H-pyrido[1,2-a]pyrimidin-4-one] | 156 |  | 81.2 | 42 | 93.2 | 69.7 | 30.5 |  | 90 µg/mL and 250 µM | < 1000 | 3.6
